Experimental data published in patent publication US8759535B2, “Substituted fused imidazole derivatives, pharmaceutical compositions, and methods of use thereof” (High Point Pharmaceuticals, LLC, priority 2010, dated 2014).
Structures can show the parent of a compound that is named as a salt.

Tested on: HMOX1
Experiment: HMOX1 Protein Assay (immunostaining of HO-1 in NHLF cells, GE InCell 1000)
Type: cell-based
Settings: Homo sapiens, fold change above DMSO treated cells, 3 μM compound (asterisk), 16 h
In short: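 NHLF cells seeded overnight in FGM-2, then exposed to compound or DMSO vehicle for 16 h, fixed, and immunostained for HO-1 with Hoechst nuclear counterstain; imaged on InCell 1000. Values are fold change over DMSO-treated cells, generally at 5 μM (0.8% DMSO), with asterisked entries at 3 μM.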

| SMILES | fold induction at 3 µM |
| --- | --- |
| C[C@@H](NC(=O)c1ccc2c(c1)nc(Nc1nc3ccc(Cl)cc3s1)n2C)C(=O)N(C)C [Example 467, 2-(6-Chloro-benzothiazol-2-ylamino)-1-methyl-1H-benzoimidazole-5-carboxylic acid ((R)-1-dimethylcarbamoyl-ethyl)-amide] | 22.3 |
| Cn1c(Nc2nc3ccc(Cl)cc3s2)nc2cc(C(=O)NCCN3CCNCC3)ccc21 [Example 339, 2-(6-Chloro-benzothiazol-2-ylamino)-1-methyl-1H-benzoimidazole-5-carboxylic acid (2-piperazin-1-yl-ethyl)-amide hydrochloride] | 10.6 |
| Cn1c(Nc2nc3ccc(Cl)cc3s2)nc2cc(C(=O)NCCS(=O)(=O)CCO)ccc21 [Example 278, 2-(6-Chloro-benzothiazol-2-ylamino)-1-methyl-1H-benzoimidazole-5-carboxylic acid [2-(2-hydroxy-ethanesulfonyl)-ethyl]-amide] | 36.5 |
| C[C@H](NC(=O)c1ccc2c(c1)nc(Nc1nc3ccc(C(F)(F)F)cc3s1)n2C)C(=O)N(C)C [Example 463, 1-Methyl-2-(6-trifluoromethyl-benzothiazol-2-ylamino)-1H-benzoimidazole-5-carboxylic acid ((S)-1-dimethylcarbamoyl-ethyl)-amide] | 26.7 |
| Cn1c(Nc2nc3ccc(OC(F)(F)F)cc3s2)nc2cc(C(=O)NCCN3CCS(=O)(=O)CC3)ccc21 [Example 342, 1-Methyl-2-(6-trifluoromethoxy-benzothiazol-2-ylamino)-1H-benzoimidazole-5-carboxylic acid [2-(1,1-dioxo-thiomorpholin-4-yl)-ethyl]-amide] | 36.8 |
| Cn1c(Nc2nc3ccc(Cl)cc3s2)nc2cc(C(=O)NCCN3CCCCC3)ccc21 [Example 334, 2-(6-Chloro-benzothiazol-2-ylamino)-1-methyl-1H-benzoimidazole-5-carboxylic acid (2-piperidin-1-yl-ethyl)-amide] | 13.4 |

Same assay, conditions: Homo sapiens, fold change above DMSO treated cells, 5 μM compound, 16 h

| SMILES | fold induction at 5 µM |
| --- | --- |
| CN(C)C(=O)C(C)(C)NC(=O)c1ccc2c(c1)nc(Nc1nc3ccc(OC(F)(F)F)cc3s1)n2C [Example 151, 1-Methyl-2-(6-trifluoromethoxy-benzothiazol-2-ylamino)-1H-benzimidazole-5-carboxylic acid (1-dimethylcarbamoyl-1-methyl-ethyl)-amide] | 41.3 |
| CN1CCC(NC(=O)c2ccc3c(c2)nc(Nc2nc4ccc(Cl)cc4s2)n3C)CC1 [Example 319, 2-(6-Chloro-benzothiazol-2-ylamino)-1-methyl-1H-benzoimidazole-5-carboxylic acid (1-methyl-piperidin-4-yl)-amide] | 23.9 |
| CCOCCNC(=O)c1ccc2c(c1)nc(Nc1nc3cc(F)c(F)cc3s1)n2C [Example 87, 2-(5,6-Difluoro-benzothiazol-2-ylamino)-1-methyl-1H-benzoimidazole-5-carboxylic acid (2-ethoxy-ethyl)-amide] | 12.1 |
| Cn1c(Nc2nc3ccc(OC(F)(F)F)cc3s2)nc2cc(C(=O)NC[C@H](O)CO)ccc21 [Example 280, 1-Methyl-2-(6-trifluoromethoxy-benzothiazol-2-ylamino)-1H-benzoimidazole-5-carboxylic acid ((S)-2,3-dihydroxy-propyl)-amide] | 38.8 |
| CN(C)CCOCCNC(=O)c1ccc2c(c1)nc(Nc1nc3ccc(Cl)cc3s1)n2C [Example 274, 2-(6-Chloro-benzothiazol-2-ylamino)-1-methyl-1H-benzoimidazole-5-carboxylic acid [2-(2-dimethylamino-ethoxy)-ethyl]-amide] | 65.9 |
| Cn1c(Nc2nc3ccc(Cl)cc3s2)nc2cc(C(=O)N[C@H]3CCN(CCO)C3)ccc21 [Example 293, 2-(6-Chloro-benzothiazol-2-ylamino)-1-methyl-1H-benzoimidazole-5-carboxylic acid [(S)-1-(2-hydroxy-ethyl)-pyrrolidin-3-yl]amide] | 29.4 |
| CN(C)C(=O)CNC(=O)c1ccc2c(c1)nc(Nc1nc3ccc(OC(F)(F)F)cc3s1)n2C [Example 80, 1-Methyl-2-(6-trifluoromethoxy-benzothiazol-2-ylamino)-1H-benzoimidazole-5-carboxylic acid dimethylcarbamoylmethyl-amide] | 23.2 |
| CN(C)CCOCCNC(=O)c1ccc2c(c1)nc(Nc1nc3ccc(OC(F)(F)F)cc3s1)n2C [Example 273, 1-Methyl-2-(6-trifluoromethoxy-benzothiazol-2-ylamino)-1H-benzoimidazole-5-carboxylic acid [2-(2-dimethylamino-ethoxy)-ethyl]-amide] | 25.3 |
| CN(C)C(=O)CCNC(=O)c1ccc2c(c1)nc(Nc1nc3ccc(OC(F)(F)F)cc3s1)n2C [Example 135, 1-Methyl-2-(6-trifluoromethoxy-benzothiazol-2-ylamino)-1H-benzimidazole-5-carboxylic acid (2-dimethylcarbamoyl-ethyl)-amide] | 49.6 |
| C[C@@H](O)CN1CCC(NC(=O)c2ccc3c(c2)nc(Nc2nc4ccc(OC(F)(F)F)cc4s2)n3C)C1 (stereo partly drawn) [Example 294, 1-Methyl-2-(6-trifluoromethoxy-benzothiazol-2-ylamino)-1H-benzoimidazole-5-carboxylic acid [1-((R)-2-hydroxy-propyl)-pyrrolidin-3-yl]-amide] | 29.4 |
| CC(=O)NCCOCCNC(=O)c1ccc2c(c1)nc(Nc1nc3ccc(OC(F)(F)F)cc3s1)n2C [Example 275, 1-Methyl-2-(6-trifluoromethoxy-benzothiazol-2-ylamino)-1H-benzoimidazole-5-carboxylic acid [2-(2-acetylamino-ethoxy)-ethyl]-amide] | 77.4 |
| COCCNC(=O)c1ccc2c(c1)nc(Nc1nc3ccc(Cl)cc3s1)n2C [Example 31, 2-(6-Chloro-benzothiazol-2-ylamino)-1-methyl-1H-benzoimidazole-5-carboxylic acid (2-methoxy-ethyl)-amide] | 23.6 |
| CCn1c(Nc2nc3ccc(Cl)cc3s2)nc2cc(C(=O)NCCF)ccc21 [Example 176, 2-(6-Chloro-benzothiazol-2-ylamino)-1-ethyl-1H-benzoimidazole-5-carboxylic acid (2-fluoro-ethyl)-amide] | 25.8 |
| CN(C)CCNC(=O)c1ccc2c(c1)nc(Nc1nc3ccc(OC(F)(F)F)cc3s1)n2C [Example 82, 1-Methyl-2-(6-trifluoromethoxy-benzothiazol-2-ylamino)-1H-benzoimidazole-5-carboxylic acid (2-dimethylamino-ethyl)-amide] | 17 |
| Cn1c(Nc2nc3ccc(S(C)(=O)=O)cc3s2)nc2cc(C(=O)NCCS(C)(=O)=O)ccc21 [Example 131, 2-(6-Methanesulfonyl-benzothiazol-2-ylamino)-1-methyl-1H-benzimidazole-5-carboxylic acid (2-methylsulfonyl-ethyl)-amide] | 6.8 |
| CN(C(=O)CNC(=O)c1ccc2c(c1)nc(Nc1nc3ccc(Cl)cc3s1)n2C)C1CCCNC1 (stereo not drawn) [Example 396, 2-(6-Chloro-benzothiazol-2-ylamino)-1-methyl-1H-benzoimidazole-5-carboxylic acid [(methyl-piperidin-3-yl-carbamoyl)-methyl]-amide hydrochloride] | 36 |
| CCn1c(Nc2nc3ccc(C(F)(F)F)cc3s2)nc2cc(C(=O)NCC(=O)N(C)C)ccc21 [Example 187, 1-Ethyl-2-(6-trifluoromethyl-benzothiazol-2-ylamino)-1H-benzoimidazole-5-carboxylic acid dimethylcarbamoylmethyl-amide] | 18.4 |
| Cn1c(Nc2nc3c(Cl)cccc3s2)nc2cc(C(=O)NCCOCCN)ccc21 [Example 270, 2-(4-Chloro-benzothiazol-2-ylamino)-1-methyl-1H benzoimidazole-5-carboxylic acid [2-(2-amino-ethoxy)-ethyl]-amide] | 14.6 |
| Cn1c(Nc2nc3ccc(OC(F)(F)F)cc3s2)nc2cc(C(=O)NCC3CNCCO3)ccc21 (stereo not drawn) [Example 56, 1-Methyl-2-(6-trifluoromethoxy-benzothiazol-2-ylamino)-1H-benzoimidazole-5-carboxylic acid (morpholin-2-ylmethyl)-amide hydrochloride] | 16.1 |
| CCNC(=O)c1cc2nc(Nc3nc4ccc(OC(F)(F)F)cc4s3)n(C)c2cc1OC [Example 64, 6-Methoxy-1-methyl-2-(6-trifluoromethoxy-benzothiazol-2-ylamino)-1H-benzoimidazole-5-carboxylic acid ethylamide] | 18.9 |
| Cn1c(Nc2nc3ccc(OC(F)(F)F)cc3s2)nc2cc(C(=O)NCCC(=O)OC(C)(C)C)ccc21 [Example 136, 3-{[1-Methyl-2-(6-trifluoromethoxy-benzothiazol-2-ylamino)-1H-benzimidazole-5-carbonyl]-amino}-propionic acid tert-butyl ester] | 5.7 |
| CN1CCN(C(=O)CNC(=O)c2ccc3c(c2)nc(Nc2nc4ccc(OC(F)(F)F)cc4s2)n3C)CC1 [Example 137, 1-Methyl-2-(6-trifluoromethoxy-benzothiazol-2-ylamino)-1H-benzimidazole-5-carboxylic acid [2-(4-methyl-piperazin-1-yl)-2-oxo-ethyl]-amide] | 6 |
| CNC(=O)c1ccc2c(c1)nc(Nc1nc3ccc(OC(F)(F)F)cc3s1)n2CCN [Example 173, 1-(2-Amino-ethyl)-2-(6-trifluoromethoxy-benzothiazol-2-ylamino)-1H-benzoimidazole-5-carboxylic acid methylamide hydrochloride] | 21.4 |
| Cn1c(Nc2nc3ccc(OC(F)(F)F)cc3s2)nc2cc(C(=O)NCC(=O)N3CCN(C(=O)OC(C)(C)C)CC3)ccc21 [Example 142, 4-(2-{[1-Methyl-2-(6-trifluoromethoxy-benzothiazol-2-ylamino)-1H-benzimidazole-5-carbonyl]-amino}-acetyl)-piperazine-1-carboxylic acid tert-butyl ester] | 15.2 |
